Data: patent US9567301B2, “Pyrrol-1-yl benzoic acid derivatives useful as myc inhibitors” (Whitehead Institute for Biomedical Research, priority 2012, dated 2017)
Read-outs that look alike come from different tables or passages of the source.

How the values were obtained:
H2171 cells = assay: Cell viability assay (ATPlite), H2171; assay type: cell-based, human; settings: cell viability, three days, ATPlite, NA: inactive under assay conditions
Description: (§1) This assay was used for the H2171 and MM1S cell data shown in Table 2, and for the Jurkat (an immortalized line of human T lymphocyte cells), Ly1 (OCI-Ly1 human non-Hodgkin lymphoma cell line), Ly4 (OCI-Ly4 human non-Hodgkin lymphoma cell line), H2172 (NCI-H2172 human non-small cell lung cancer cell line), and CA-46 (a human Burkitt's lymphoma cell line) cell data shown in Table 3 and FIG. 12. Cells were counted and adjusted to 60,000 cells/mL. Using a Biotek EL406, 50 μL of cells are media were distributed into 384 well white plates from Thermo. Immediately after plating, compound in DMSO was distributed to plates. For large plate sets, cells were returned to 37° C. incubator while not in use.
(§2) Compounds were added to plates using a 100 nL 384 well pin transfer manifold on a Janus workstation. Stocks were arrayed in 10 point quadruplicate dose response in DMSO stock in 384 well Greiner compound plates. After addition of compound, plates were incubated for three days in a 37° C. incubator.
(§3) Cell viability was read out using ATPlite from Perkin Elmer. Plates were removed from the incubator and brought to room temperature prior to use. Lyophilized powder was resuspended in lysis buffer and diluted 1:2 with DI water. 25 μL of this solution was added to each well using the Biotek liquid handler. Plates were sealed with adherent aluminum seals prior to vortexing and spinning down at 1000 g for 1 minute. Plates were incubated for 15 minutes at room temperature before signal was read on an Envision Plate Reader.

MM1S cells = assay: Cell viability assay (ATPlite), MM1S; assay type: cell-based, human; settings: cell viability, three days, ATPlite, NA: inactive under assay conditions
Description: as §1, §2, §3

c-Myc/Max/Ebox DNA = c-Myc/Max/Ebox DNA (Homo sapiens, UniProt P01106); assay: c-Myc/Max/Ebox DNA AlphaScreen assay; assay type: binding; set-up: An exemplary assay uses full-length human c-Myc and Max proteins; his6 (cleaved yes); made in house
Description: This protocol was used to generate the biochemical data in Table 2 and FIG. 11. The primary AlphaScreen assay is amenable to 384-well and 1536-well plate formats for HTS. Human his6-c-Myc and his6-Max were used with biotinylated DNA containing a single Ebox sequence (biotin[…]) purchased from MWG Operon. Free c-Myc was generated from his6-c-Myc through thrombin cleavage of the his6 tag. For 384-well plate assays, 10 μL of a 2× solution of free c-Myc (25 nM final), Ni++-coated Acceptor Bead (25 μg/ml final), and biotinylated Ebox oligo (10 nM final) were added to 384-well plates with a Biotek EL406 liquid handler. 100 nL of compounds from stock plates were added by pin transfer using a Janus Workstation (PerkinElmer), allowing the compounds to interact with c-Myc prior to c-Myc binding with Max. In the current assay, DMSO was not allowed to exceed 2% v/v of the assay. 10 μl of 2× master mix containing streptavidin-coated donor beads (25 μg/ml final) and his6-Max (1.25 nM final) were added. AlphaScreen measurements were performed on an Envision 2104 (PerkinElmer) utilizing the manufacturer's protocol. The assay can also be performed in 1536-plate format with 8 μL total volume using two 4 μL additions (instead of […] and 10 μL respectively).
Assays are performed with minor modifications from the manufacturer's protocol (PerkinElmer). Both master mixes were made in room temperature assay buffer (50 mM HEPES, 150 mM NaCl, 0.2% w/v BSA, 0.02% w/v Tween20, 40 μg/ml glycogen, 500 μM DTT, pH 8.0, DTT and glycogen added fresh). Alpha beads were added to respective master solutions and wrapped in foil. All subsequent steps were performed in low light conditions. Solution 1: 2× solution of components with final concentrations of cMyc (25 nM), Ni-coated Acceptor Bead (25 μg/ml), and biotinylated Ebox oligo (10 nM). Solution 2: 2× solution of streptavidin-coated donor beads (25 μg/ml final) and his6-Max (1.25 nM final). […] Solution 1 were added to 384-well plate (AlphaPlate-384, PerkinElmer) with Biotek EL406 liquid handler and the plates were centrifuged at 1000 rpm for 1 minute. 100 nL of compounds from stock plates were added by pin transfer using a Janus Workstation. 10 μL Solution 2 were added with the liquid handler. Plates were sealed with foil to block light exposure and prevent evaporation. Plates were centrifuged at 1000 rpm for 1 minute followed by 2 hour incubation. AlphaScreen measurements were performed on an Envision 2104 utilizing the manufacturer's protocol. Excitation was at 680 nm for donor bead release of singlet oxygen and emission was read with a bandpass filter from 520-620 nm. Glycogen: Roche Diagnostics #10901393001. Plate 1536: Perkin Elmer, 6004350. Plate 384: Perkin Elmer, 6005350. Nickel-His Alpha Beads: 6760619R.

Jurkat cells = assay: Cell viability assay (ATPlite), Jurkat; assay type: cell-based, human; settings: Homo sapiens, Jurkat; class symbols; NA: not active under assay conditions
Description: as §1, §2, §3

[1] = c-Myc/Max/Ebox DNA AlphaScreen, NA: inactive under assay conditions, read-out: Biochemical IC50
[2] = class symbols, NA: not active under assay conditions, read-out: Myc/Max IC50

c-Myc/Max/Ebox DNA, sequence (P01106 16-454): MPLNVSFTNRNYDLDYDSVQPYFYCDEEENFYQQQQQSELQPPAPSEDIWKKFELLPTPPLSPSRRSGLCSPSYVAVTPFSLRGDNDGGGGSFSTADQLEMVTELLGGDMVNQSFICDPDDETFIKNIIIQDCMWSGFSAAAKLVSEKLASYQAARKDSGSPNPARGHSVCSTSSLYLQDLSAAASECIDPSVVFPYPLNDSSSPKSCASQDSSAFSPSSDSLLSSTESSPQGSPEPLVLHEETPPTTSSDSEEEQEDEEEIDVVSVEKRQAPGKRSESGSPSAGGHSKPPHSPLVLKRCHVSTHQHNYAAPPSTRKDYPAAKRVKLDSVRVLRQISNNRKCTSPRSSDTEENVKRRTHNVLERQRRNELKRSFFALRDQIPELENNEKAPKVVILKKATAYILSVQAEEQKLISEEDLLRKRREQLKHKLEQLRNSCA

SMILES	EC50 (H2171 cells; Homo sapiens, NCI-H2171, 72 h) [µM]	EC50 (MM1S cells; Homo sapiens, MM1.S, 72 h) [µM]	IC50 (c-Myc/Max/Ebox DNA; [1]) [µM]	EC50 (H2171 cells) [µM]	EC50 (MM1S cells) [µM]	EC50 (Jurkat cells) [µM]	IC50 (c-Myc/Max/Ebox DNA; [2]) [µM]
Cc1nccn1-c1ccccc1C(=O)O [Compound 26]	6.27	11.5	442				
Cc1ccc(C)n1-c1ccc(C(=O)O)c(O)c1 [Compound 65]			61.9	189	1440		
Cc1ccc(C)n1-c1ccccc1CC(=O)O [Compound 68]	52.9	340	195				
Cc1ccc(C)n1-c1ccccc1/C=C/C(=O)O [Compound 69]	115	39	156				
Cc1ccc(C)n1-c1cc(C(=O)NN)ccc1C(=O)O [Compound 70]		1240	6.98	43.7			
Cc1ccc(C)n1-c1cc(C(=O)N/N=C/c2ccccc2)ccc1C(=O)O [Compound 71]	48.4	261	103				
Cc1ccc(C)n1-c1cc(C(=O)NCCc2c[nH]cn2)ccc1C(=O)O [Compound 72]	198	2760	15.4				
Cc1ccc(C)n1-c1cc(C(=O)NCCN2CCN(C)CC2)ccc1C(=O)O [Compound 74]	120	27600	104				
Cc1ccc(C)n1-c1cc(C(=O)N/N=C/c2ccc3c(c2)OCCN3C)ccc1C(=O)O [Compound 89]	198	92.4	38				
Cc1ccc(C)n1-c1cc(C(=O)N/N=C/c2cc(C(F)(F)F)cc(C(F)(F)F)c2)ccc1C(=O)O [Compound 98]	24100	5170	3.84				
Cc1ccc(C)n1-c1cc(C(=O)N/N=C/c2ccc(F)c(F)c2)ccc1C(=O)O [Compound 99]	106	492	4.82				
Cc1ccc(C)n1-c1ccc(C(=O)O)c(O)c1 [Compound 127]			53.3	517	517		
Cc1ccc(C)n1-c1ccccc1S(=O)(=O)O [Compound 128]	303	243	252				
Cc1ccc(C)n1-c1cc2ccccc2cc1C(=O)O [Compound 129]	151	264	31				
Cc1cc(Br)c(-n2c(C)ccc2C)c(C(=O)O)c1 [Compound 130]	224	300	51.5				
Cc1ccc(C)n1-c1ncccc1C(=O)O [Compound 134]						≥ 100	1 to 10
Cc1c(C)c(C)n(-c2ccc(C(=O)O)c(O)c2)c1C [Compound 139]	564	329	96.4				
CC(=O)OCOC(=O)c1ccc(-n2c(C)ccc2C)cc1O [Compound 143]			91.4	66.1	161		
COc1cc(C(=O)O)c(-n2c(C)ccc2C)cc1OC [Compound 145]	83.8	161	13.5				
Cc1ccc(-c2ccc(-n3c(C)ccc3C)c(C(=O)O)c2)cc1 [Compound 148]	268	1690	941				
CC(=O)OCOC(=O)c1ccccc1-n1c(C)ccc1C [Compound 149]			101	20.7	71.4		
CC(=O)OCOC(=O)c1ccccc1-n1cccc1 [Compound 150]	28	99.1	150				
CC(=O)OCOC(=O)c1ccccc1N1CCOCC1 [Compound 152]	22.8	71.9	2480				

SMILES	EC50 (H2171 cells; Homo sapiens, NCI-H2171, 72 h) [µM]	EC50 (MM1S cells; Homo sapiens, MM1.S, 72 h) [µM]	IC50 (c-Myc/Max/Ebox DNA; [1]) [µM]	EC50 (H2171 cells) [µM]	EC50 (MM1S cells) [µM]	EC50 (Jurkat cells) [µM]	IC50 (c-Myc/Max/Ebox DNA; [2]) [µM]
Cc1cccc(Nc2ccccc2C(=O)O)c1C [Compound 153]	93.5	185	403				
CC(=O)Nc1ccc(-n2c(C)ccc2C)c(C(=O)O)c1 [Compound 155]	247	222	1.8				
CC(=O)OCOC(=O)c1ccc(Cl)cc1-n1c(C)ccc1C [Compound 158]	70.3	238	206				
COc1cc(C(=O)OCOC(C)=O)c(-n2c(C)ccc2C)cc1OC [Compound 160]	104	211	94.6				
Cc1ccc(C)n1-c1cc(C(=O)N2CCCC(c3ccc(C(=O)O)cc3)C2)ccc1C(=O)O (centres unmarked) [Compound 164]						≥ 100	1 to 10
Cc1ccc(C)n1-c1cc(-c2nnc(-c3cccc(C(=O)O)c3)o2)ccc1C(=O)O [Compound 167]						10 to 100	10 to 100
Cc1ccc(C)n1-c1cc(C(=O)N2CCCC(c3cccc(C(=O)O)c3)C2)ccc1C(=O)O (centres unmarked) [Compound 169]						≥ 100	1 to 10
Cc1ccccc1N1CCN(C(=O)c2ccc(C(=O)O)c(-n3c(C)ccc3C)c2)CC1 [Compound 179]						≥ 100	10 to 100
Cc1ccc(C)n1-c1ccccc1C(=O)NS(C)(=O)=O [Compound 180]						≥ 100	10 to 100
Cc1ccc(C)n1-c1cccnc1C(=O)O [Compound 181]						≥ 100	1 to 10
Cc1ccc(C)n1-c1cc(C(=O)N2CCN(c3cccc(O)c3)CC2)ccc1C(=O)O [Compound 182]						≥ 100	1 to 10
COC(=O)c1ccc(C(=O)NNC(=O)OC(C)(C)C)cc1-n1c(C)ccc1C [Compound 184]						≥ 100	≥ 100
COc1ccc(C2CCCN(C(=O)c3ccc(C(=O)O)c(-n4c(C)ccc4C)c3)C2)cc1 (centres unmarked) [Compound 185]						≥ 100	10 to 100
Cc1ccc(C)n1-c1cc(C(=O)N2CCCC(c3ccc(C(=O)NS(C)(=O)=O)cc3)C2)ccc1C(=O)NS(C)(=O)=O (centres unmarked) [Compound 186]						≥ 100	≥ 100
Cc1ccc(C)n1-c1ncccc1C(=O)NS(C)(=O)=O [Compound 187]						≥ 100	≥ 100
Cc1ccc(C)n1-c1cc(C(=O)N2CCCC(c3ccccc3)C2)ccc1C(=O)O (centres unmarked) [Compound 188]						≥ 100	10 to 100
COc1cccc(C2CCCN(C(=O)c3ccc(C(=O)O)c(-n4c(C)ccc4C)c3)C2)c1 (centres unmarked) [Compound 189]						10 to 100	1 to 10
Cc1ccc(C)n1-c1ccccc1C(=O)NS(=O)(=O)C1CC1 [Compound 190]						10 to 100	≥ 100
Cc1ccc(C)n1-c1ccccc1C(=O)NS(=O)(=O)c1ccccc1 [Compound 191]						10 to 100	≥ 100
Cc1ccc(C(F)(F)F)n1-c1ccccc1C(=O)O [Compound 192]						10 to 100	≥ 100
Cc1ccc(C)n1-c1cc(CNCc2ccc(C(=O)O)cc2)ccc1C(=O)O [Compound 193]						≥ 100	< 1
Cc1ccc(C)n1-c1cc(C(=O)N2CCN(c3cccnc3)CC2)ccc1C(=O)O [Compound 194]						10 to 100	≥ 100
